According to PMC4559029 (Cancer Medicine, 2015):

Key:
[1] = published QT results for ondansetron; assay type: in vivo; details: 24 mg ondansetron, inferred by authors from published 32 mg data
Protocol: The majority of patients (18/26) received ondansetron 24 mg IV.

[2] = parameters: method as in earlier work; details: ondansetron 32 mg IV; cited from earlier work
[3] = tested on: patients with advanced malignancy; test: centrally read ECG analysis (QTcF, PR, QRS, heart rate) in patients with advanced malignancy
Protocol: All patients provided written informed consent.
PK/PD modeling is not reported as it was not possible to account for the possible effects of coadministered antiemetics and the absence of closely collected ECGs during times of PK sampling when rapid changes in the plasma concentrations occurred. For the central tendency and categorical analyses, the mean of the three replicates was used. All paper ECGs were analyzed by a core central ECG laboratory (Duke Clinical Research Institute [DCRI], Durham, NC) in a fully blinded fashion. A DCRI technician marked the fiducial points on each ECG tracing and, using a digital caliper, measured the QT, PR, RR, and QRS intervals. All ECGs were over read by a DCRI cardiologist for verification of the interval measurements.

[4] = clinical; details: human, plasma, intravenous
[5] = tested on: hERG-related current; details: at 10 μg/mL; ref data on file, Celgene Corporation; cited from earlier work
[6] = tested on: patients; details: early clinical development, across several studies; cited from earlier work

Cc1nccn1CC1CCc2c(c3ccccc3n2C)C1=O (stereo not shown) [ondansetron]
QTc effect at 4 h [1]: < 5 ms | increase in QTc at 4 h [2]: ≈ 6 msec | initial increase in QTc [2]: ≈ 20 msec

C/C=C1\NC(=O)[C@H]2CSSCC/C=C/[C@H](CC(=O)N[C@H](C(C)C)C(=O)N2)OC(=O)[C@H](C(C)C)NC1=O [romidepsin]
upper 90% CI of maximal mean QTcF increase from preantiemetic baseline ([3]; 14 mg/m^2 4-h infusion, at 0.25 h postinitiation): 14.5 ms | increase in heart rate ([3]; human, in vivo): ≈ 20 bpm | patients with absolute QTcF value >450 msec ([3]; human, in vivo): No patient | AUC(0-inf) ([4]; 8 mg/m^2): 1350 ng·h/mL | Cmax ([4]; 8 mg/m^2): 1110 ng/mL | half-life ([4]; 8 mg/m^2): 4.82 h | Cmax ([4]; 10 mg/m^2): 1480 ng/mL | half-life ([4]; 10 mg/m^2): 4.94 h | AUC(0-inf) ([4]; 12 mg/m^2): 3010 ng·h/mL | Cmax ([4]; 12 mg/m^2): 2090 ng/mL | half-life ([4]; 12 mg/m^2): 4.32 h | AUC(0-inf) ([4]; 14 mg/m^2): 3070 ng·h/mL | Cmax ([4]; 14 mg/m^2): 780 ng/mL | half-life ([4]; 14 mg/m^2): 3.7 h | inhibition of hERG-related current [5]: 37% | patients with sudden death [6]: six
